Assay results from patent publication US7763751B2 (priority 2003, dated 2010).
Read-outs that look alike come from different tables or passages of the source.

Columns and labels:
β-Amyloid1-42 = biological target: T1, β-Amyloid1-42 (Homo sapiens, UniProt P05067); test: Inhibition of Aβ 1-42 spontaneous aggregation (HPLC assay); format: biochemical; details: for IC50: concentration able to inhibit the aggregation of the fibrils by 50%, peptide 20 μM, pH 7.4, 18 h at 37° C., read-out: β-Amyloid1-42 Anti-aggregation (HPLC assay) IC50; for potency in inhibiting the aggregation of Aβ1-42 as compared to compound (3): comparison with known compound (3); for anti-aggregating properties against Aβ1-42: in words
T1 construct: Synthetic Aβ 1-42 (U.S. Peptide, Rancho Cucamonga, USA); purchased U.S. Peptide, Rancho Cucamonga, USA; host or cells: chemical synthesis
T1 sequence (P05067 672-713 limits assumed): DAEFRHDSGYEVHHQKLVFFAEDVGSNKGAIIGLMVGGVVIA
Experimental: (§1) In our experimental conditions, the peptide monomer (anti-aggregation protocol) or already aggregated (disaggregation protocol) was incubated at 37° C., alone or in the presence of the test compound, for different time intervals, then centrifuged and both the supernatant and the pellet were analyzed by HPLC or Thioflavine T binding assay.
Inhibition of Aβ 1-42 Spontaneous Aggregation
Preparation of the Aβ 1-42 peptide
Synthetic Aβ 1-42 (U.S. Peptide, Rancho Cucamonga, USA) was dissolved to 220 μM in H2O/CH3CN 1:1. Aliquots of 10 μg were lyophilized under vacuum with an Eppendorf concentrator for 18 h and stored at −80° C.
Aβ 1-42 spontaneous aggregation
10 μg of lyophilized peptide sample was dissolved at 20 μM in 20 mM potassium phosphate buffer, pH 7.4, containing 150 mM NaCl. The sample was incubated for 18 h at 37° C. After centrifugation at 13000 xg for 5 min, the pellet was dissolved in formic acid and both the pellet and the supernatant were analysed by HPLC. The extent of aggregation was determined as the percentage of peptide content in the pellet compared with the total amount.

α-synuclein = biological target: T2, α-synuclein (Homo sapiens, UniProt P37840); test: Inhibition of NAC (α-synuclein) spontaneous aggregation (HPLC assay); format: biochemical; details: for potency in inhibiting the aggregation of α-synuclein as compared to compound (3): comparison with known compound (3); for anti-aggregating properties against α-synuclein: in words
T2 construct: The synthetic peptide NAC (Bachem) was dissolved at 1 mg/ml; purchased Bachem; host or cells: chemical synthesis
Experimental: as §1
Inhibition of Non Aβ Component of Alzheimer's Disease Amyloid (NAC, α-synuclein) Spontaneous Aggregation
Preparation of the NAC peptide
The synthetic peptide NAC (Bachem) was dissolved at 1 mg/ml in H2O/CH3CN 1:1 plus 5% TFA. Aliquots of 40 μg were lyophilized under vacuum for 18 h and stored at −80° C.
NAC spontaneous aggregation
40 μg of lyophilized peptide sample was dissolved at 500 μM in 20 mM potassium phosphate buffer, pH 7.4, containing 150 mM NaCl. The sample was incubated for 24 h at 37° C. After centrifugation at 13000 xg for 5 min, the pellet was dissolved in formic acid and both pellet and supernatant were analyzed by HPLC. The extent of aggregation was determined as the percentage of peptide content in the pellet compared to the total amount used.

Row | SMILES | IC50 (β-Amyloid1-42) [µM] | IC50 (α-synuclein; NAC peptide 500 μM, pH 7.4, 24 h at 37° C., read-out: α-synuclein Anti-aggregation (HPLC assay) IC50) [µM] | potency in inhibiting the aggregation of Aβ1-42 as compared to compound (3) (β-Amyloid1-42) | anti-aggregating properties against Aβ1-42 (β-Amyloid1-42) | IC50 (α-synuclein) [µM] | potency in inhibiting the aggregation of α-synuclein as compared to compound (3) (α-synuclein) | anti-aggregating properties against α-synuclein (α-synuclein)
1 | CCCN(CCC)[C@@H]1Cc2c(O)ccc(O)c2C[C@H]1C (relative stereo) [Compound 3, trans-N-(5,8-hydroxy-3-methyl-1,2,3,4-tetrahydro-naphtalene-2yl)-N,N-dipropyl-amine, reference compound] | 60 | 878 |  |  |  |  | 
2 | CONC(C)Cc1ccc(O)c(O)c1 (centres unmarked) [Compound 1, N-(1-methyl-2-(3,4-dihydroxy-phenyl)-ethyl)-O-methyl-hydroxylamine] | 15 |  | more potent | significant anti-aggregating properties | 222 | more potent | significant anti-aggregating properties
3 | CCCN(OCC)C1CCc2c(ccc(O)c2O)C1 (centres unmarked) [Compound 2, N-(5,6-dihydroxy-1,2,3,4-tetrahydro-naphthalene-2-yl)-N-propyl-O-ethyl-hydroxylamine] | 6 |  | significantly more potent | significant anti-aggregating properties | 35 | significantly more potent | significant anti-aggregating properties
